Measured values: patent US6878732B2, “NK1 antagonists” (Schering Corporation, priority 2002, dated 2005)
Values joined by “and” are separate entries in the source; they are usually repeats but may differ in a detail not shown here. Identical values can stand only once.

Target: NK1 receptor (Homo sapiens, UniProt P25103)
Experiment: NK1 receptor binding: inhibition of Substance P binding, Ki by the Chang-Prusoff equation
Conditions: inhibition constant from the concentration giving 50% inhibition of binding; procedure of Duffy et al.
Source text: The percent of MSB is defined by the following equation, wherein “dpm” represents “disintegrations per minute”: [formula]

Sequence of NK1 receptor (P25103 whole entry, species assumed): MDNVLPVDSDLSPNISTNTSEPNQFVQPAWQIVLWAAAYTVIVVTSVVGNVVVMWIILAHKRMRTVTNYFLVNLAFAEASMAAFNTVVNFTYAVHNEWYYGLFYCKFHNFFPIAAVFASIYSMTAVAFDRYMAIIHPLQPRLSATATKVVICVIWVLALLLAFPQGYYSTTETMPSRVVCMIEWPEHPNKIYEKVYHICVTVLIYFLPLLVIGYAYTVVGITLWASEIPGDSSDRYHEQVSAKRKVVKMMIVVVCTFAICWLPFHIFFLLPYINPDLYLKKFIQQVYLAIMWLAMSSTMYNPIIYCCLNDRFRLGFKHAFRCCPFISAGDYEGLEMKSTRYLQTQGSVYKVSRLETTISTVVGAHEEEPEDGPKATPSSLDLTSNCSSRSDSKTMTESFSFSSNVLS

Ki	Structure (SMILES)
0.13 to 1.78 nM	C[C@@H](OC[C@]1(c2ccccc2)C[C@]2(C1)NC(=O)NC2=O)c1cc(C(F)(F)F)cc(C(F)(F)F)c1 [Example 11a]
0.13 to 1.78 nM	C[C@@H](OC[C@]1(c2ccccc2)C[C@@]2(C1)NC(=O)NC2=O)c1cc(C(F)(F)F)cc(C(F)(F)F)c1 [Example 11b]
0.13 to 1.78 nM	C[C@@H](OC[C@]1(c2ccccc2)C[C@@]2(CNC(=O)N2)C1)c1cc(C(F)(F)F)cc(C(F)(F)F)c1 [Example 12b]
0.13 to 1.78 nM	CNC(=O)[C@]1(N)C[C@@](CO[C@H](C)c2cc(C(F)(F)F)cc(C(F)(F)F)c2)(c2ccccc2)C1 [Example 27]
0.13 to 1.78 nM	C[C@@H](OC[C@]1(c2ccccc2)C[C@](N)(C(N)=O)C1)c1cc(C(F)(F)F)cc(C(F)(F)F)c1 [Example 28]
0.13 to 1.78 nM	C[C@@H](OC[C@]1(c2ccccc2)C[C@]2(C1)N=CNC2=O)c1cc(C(F)(F)F)cc(C(F)(F)F)c1 [Example 46]
0.13 to 1.78 nM and 0.2 nM	C[C@@H](OC[C@]1(c2ccccc2)C[C@]2(C1)NCNC2=O)c1cc(C(F)(F)F)cc(C(F)(F)F)c1 [Example 49]
